In patent US8124788B2, “Spirocyclic cyclohexane compounds with analgesic activity” (Gruenenthal GmbH, priority 2006, dated 2012):

Molecular target: T1, human μ opiate receptor (Homo sapiens, UniProt P35372)
T1 construct: purchased PerkinElmer Life Sciences, Zaventem, Belgium RB-HOM; host or cells: CHO-K1 cells (recombinant expression)
Experiment: Affinity for the human μ opiate receptor ([3H]-naloxone displacement, CHO-K1 membrane preparation, SPA)
Type: binding
Conditions: compounds prepared via automated synthesis; single measurements at a test concentration of 1 μM
Experimental: The receptor affinity for the human μ opiate receptor is determined in a homogeneous set-up in microtitre plates. For this purpose, dilution series of the substances to be tested are incubated with a receptor membrane preparation (15-40 μg of protein/250 μl of incubation batch) of CHO-K1 cells which express the human μ opiate receptor (RB-HOM receptor membrane preparation from PerkinElmer Life Sciences, Zaventem, Belgium) in the presence of 1 nmol/l of the radioactive ligand [^3H]-naloxone (NET719, PerkinElmer Life Sciences, Zaventem, Belgium) and 1 mg of WGA-SPA-Beads (wheat germ agglutinin SPA beads from Amersham/Pharmacia, Freiburg, Germany) in a total volume of 250 μl for 90 minutes at room temperature. 50 mmol/l of Tris-HCl supplemented with 0.06% of bovine serum albumin are used as the incubation buffer. 100 μmol/l of naloxone are additionally added for determination of the non-specific binding. After the end of the ninety-minute incubation time, the microtitre plates are centrifuged for 20 minutes at 1,000 g and the radioactivity is measured in a β-counter (Microbeta-Trilum, PerkinElmer Wallac, Freiburg, Germany). The percentage displacement of the radioactive ligand from its binding to the human μ opiate receptor is determined at a concentration of the test substances of 1 μmol/l and stated as the percentage inhibition of the specific binding. Starting from the percentage displacement by various concentrations of the test substances, IC50 inhibitory concentrations which cause a 50 percent displacement of the radioactive ligand are calculated. By conversion by means of the Cheng-Prusoff relationship, Ki values for the test substances are obtained.

T1 sequence (P35372 whole entry): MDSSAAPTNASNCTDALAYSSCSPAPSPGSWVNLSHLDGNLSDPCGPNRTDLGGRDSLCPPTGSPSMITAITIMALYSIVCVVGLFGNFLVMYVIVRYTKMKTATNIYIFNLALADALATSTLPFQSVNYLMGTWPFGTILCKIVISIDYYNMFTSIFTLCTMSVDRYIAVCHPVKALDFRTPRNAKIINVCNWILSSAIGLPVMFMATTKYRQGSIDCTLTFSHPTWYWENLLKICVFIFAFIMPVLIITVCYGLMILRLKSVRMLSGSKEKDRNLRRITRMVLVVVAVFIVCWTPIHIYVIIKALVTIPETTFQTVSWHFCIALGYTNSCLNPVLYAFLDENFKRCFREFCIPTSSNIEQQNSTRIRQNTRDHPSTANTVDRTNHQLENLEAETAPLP

SMILES | μ opioid receptor [1 μmol], % inhibition [%]
CN(C)C(c1ccc(F)cc1)C1CCC2(CC1)c1[nH]c3ccccc3c1CCN2C(=O)C=Cc1ccccc1 (stereo not drawn) [Compound 86, 1-{1,1-[3-(dimethylamino-(4-fluorophenyl)methyl) -pentamethylene]-3,4-dihydro-1H-2,9-diazafluoren-2-yl}-3-phenylprop-2-en-1-one] | 12
COc1cccc(CC(=O)N2CCc3c([nH]c4ccccc34)C23CCC(C(c2cccc(F)c2)N(C)C)CC3)c1 (stereo not drawn) [Compound 126, 2-[(3-methoxyphenyl)acetyl]-{1,1-[3-(dimethylamino-(3-fluorophenyl)methyl)-pentamethylene]-3,4-dihydro-1H-2,9-diazafluorene}] | 50
CN(C)C(c1cccc(F)c1)C1CCC2(CC1)c1[nH]c3ccccc3c1CCN2C(=O)C1CC1 (stereo not drawn) [Compound 91, 2-(cyclopropylcarbonyl)-{1,1-[3-(dimethylamino-(3-fluorophenyl)methyl)-pentamethylene]-3,4-dihydro-1H-2,9-diazafluorene}] | 25
CCCCC(CC)C(=O)N1CCc2c([nH]c3ccccc23)C12CCC(C(c1ccccc1)N(C)C)CC2 (stereo not drawn) [Compound 100, 2-(2-ethylhexanoyl)-{1,1-[3-(dimethylamino-phenylmethyl)-pentamethylene]-3,4-dihydro-1H-2,9-diazafluorene}] | 65
CN(C)C(c1cccc(F)c1)C1CCC2(CC1)c1[nH]c3ccccc3c1CCN2C(=O)Cc1ccc(F)cc1 (stereo not drawn) [Compound 116, 2-[(4-fluorophenyl)acetyl]-{1,1-[3-(dimethylamino-(3-fluorophenyl)methyl)-pentamethylene]-3,4-dihydro-1H-2,9-diazafluorene}] | 20
CC(=O)N1CCc2c([nH]c3ccccc23)C12CCC(C(c1cccc(F)c1)N(C)C)CC2 (stereo not drawn) [Compound 89, acetyl-{1,1-[3-(dimethylamino-(3-fluorophenyl)methyl) -pentamethylene]-3,4-dihydro-1H-2,9-diazafluorene}] | 10
CC(=O)N1CCc2c([nH]c3ccccc23)C12CCC(C(c1ccccc1)N(C)C)CC2 (stereo not drawn) [Compound 79, 2-acetyl-{1,1-[3-(dimethylamino-phenylmethyl) -pentamethylene]-3,4-dihydro-1H-2,9-diazafluorene}] | 4
CN(C)C(c1cccc(F)c1)C1CCC2(CC1)c1[nH]c3ccccc3c1CCN2C(=O)CC(C)(C)C (stereo not drawn) [Compound 66, 1-{1,1-[3-(dimethylamino-(3-fluorophenyl)methyl) -pentamethylene]-3,4-dihydro-1H-2,9-diazafluoren-2-yl}-3,3-dimethylbutan-1-one] | 26
CN(C)C(c1ccc(Cl)cc1)C1CCC2(CC1)c1[nH]c3ccccc3c1CCN2C(=O)COc1ccc(Cl)cc1 (stereo not drawn) [Compound 77, 2-[(4-chlorophenoxy)acetyl]-{1,1-[3-(dimethylamino-(4-chlorophenyl)-methyl)-pentamethylene]-3,4-dihydro-1H-2,9-diazafluorene}] | 17
COc1ccc(CC(=O)N2CCc3c([nH]c4ccccc34)C23CCC(C(c2ccc(Cl)cc2)N(C)C)CC3)cc1OC (stereo not drawn) [Compound 74, 2-[(3,4-dimethoxyphenyl)acetyl]-{1,1-[3-(dimethylamino-(4-chlorophenyl)-methyl)-pentamethylene]-3,4-dihydro-1H-2,9-diazafluorene}] | 37
COc1cccc(CC(=O)N2CCc3c([nH]c4ccccc34)C23CCC(C(c2ccc(F)cc2)N(C)C)CC3)c1 (stereo not drawn) [Compound 140, 2-[(3-methoxyphenyl)acetyl]-{1,1-[3-(dimethylamino-(4-fluorophenyl)methyl)-pentamethylene]-3,4-dihydro-1H-2,9-diazafluorene}] | 47
CN(C)C(c1ccc(F)cc1)C1CCC2(CC1)c1[nH]c3ccccc3c1CCN2C(=O)CC(C)(C)C (stereo not drawn) [Compound 62, 1-{1,1-[3-(dimethylamino-(4-fluorophenyl)methyl) -pentamethylene]-3,4-dihydro-1H-2,9-diazafluoren-2-yl}-3,3-dimethylbutan-1-one] | 12
CC(=Cc1ccccc1)C(=O)N1CCc2c([nH]c3ccccc23)C12CCC(C(c1ccc(Cl)cc1)N(C)C)CC2 (stereo not drawn) [Compound 75, 1-{1,1-[3-(dimethylamino-(4-chlorophenyl)methyl) -pentamethylene]-3,4-dihydro-1H-2,9-diazafluoren-2-yl}-2-methyl-3-phenylprop-2-en-1-one] | 13
CC(CC(=O)N1CCc2c([nH]c3ccccc23)C12CCC(C(c1ccc(F)cc1)N(C)C)CC2)c1ccccc1 (stereo not drawn) [Compound 142, 1-{1,1-[3-(dimethylamino-(4-fluorophenyl)methyl) -pentamethylene]-3,4-dihydro-1H-2,9-diazafluoren-2-yl}-3-phenylbutan-1-one] | 30
COc1ccc(CC(=O)N2CCc3c([nH]c4ccccc34)C23CCC(C(c2cccc(F)c2)N(C)C)CC3)cc1OC (stereo not drawn) [Compound 67, 2-[(3,4-dimethoxyphenyl)acetyl]-{1,1-[3-(dimethylamino-(3-fluorophenyl)methyl)-pentamethylene]-3,4-dihydro-1H-2,9-diazafluorene}] | 25
CN(C)C(c1ccccc1)C1CCC2(CC1)c1[nH]c3ccccc3c1CCN2C(=O)Cc1ccc(F)cc1 (stereo not drawn) [Compound 104, 2-[(4-fluorophenyl)acetyl]-{1,1-[3-(dimethylamino-phenylmethyl)-pentamethylene]-3,4-dihydro-1H-2,9-diazafluorene}] | 39
CN(C)C(c1ccc(Cl)cc1)C1CCC2(CC1)c1[nH]c3ccccc3c1CCN2C(=O)Cc1ccc(F)cc1 (stereo not drawn) [Compound 123, 2-[(4-fluorophenyl)acetyl]-{1,1-[3-(dimethylamino-(4-chlorophenyl)-methyl)-pentamethylene]-3,4-dihydro-1H-2,9-diazafluorene}] | 20
CC(C)CC(=O)N1CCc2c([nH]c3ccccc23)C12CCC(C(c1ccccc1)N(C)C)CC2 (stereo not drawn) [Compound 138, 1-{1,1-[3-(dimethylamino-phenylmethyl)-pentamethylene]-3,4-dihydro-1H-2,9-diazafluoren-2-yl}-3-methylbutan-1-one] | 58
CN(C)C(c1ccc(Cl)cc1)C1CCC2(CC1)c1[nH]c3ccccc3c1CCN2C(=O)Cc1cccc(Br)c1 (stereo not drawn) [Compound 132, 2-[(3-bromophenyl)acetyl]-{1,1-[3-(dimethylamino-(4-chlorophenyl)-methyl)-pentamethylene]-3,4-dihydro-1H-2,9-diazafluorene}] | 65
CC(=Cc1ccccc1)C(=O)N1CCc2c([nH]c3ccccc23)C12CCC(C(c1ccccc1)N(C)C)CC2 (stereo not drawn) [Compound 58, 1-{1,1-[3-(dimethylamino-phenylmethyl)-pentamethylene]-3,4-dihydro-1H-2,9-diazafluoren-2-yl}-2-methyl-3-phenylprop-2-en-1-one] | 50
CC(C)CC(=O)N1CCc2c([nH]c3ccccc23)C12CCC(C(c1cccc(F)c1)N(C)C)CC2 (stereo not drawn) [Compound 129, 1-{1,1-[3-(dimethylamino-(3-fluorophenyl)methyl) -pentamethylene]-3,4-dihydro-1H-2,9-diazafluoren-2-yl}-3-methylbutan-1-one] | 74
COCC(=O)N1CCc2c([nH]c3ccccc23)C12CCC(C(c1ccc(Cl)cc1)N(C)C)CC2 (stereo not drawn) [Compound 97, 2-(methoxyacetyl)-{1,1-[3-(dimethylamino-(4-chlorophenyl)methyl)-pentamethylene]-3,4-dihydro-1H-2,9-diazafluorene}] | 20
CN(C)C(c1ccc(F)cc1)C1CCC2(CC1)c1[nH]c3ccccc3c1CCN2C(=O)CCC1CCCC1 (stereo not drawn) [Compound 85, 2-(3-cyclopentylpropanoyl)-{1,1-[3-(dimethylamino-(4-fluorophenyl)methyl)-pentamethylene]-3,4-dihydro-1H-2,9-diazafluorene}] | 50
CN(C)C(c1ccc(Cl)cc1)C1CCC2(CC1)c1[nH]c3ccccc3c1CCN2C(=O)C1CC1 (stereo not drawn) [Compound 96, 2-(cyclopropylcarbonyl)-{1,1-[3-(dimethylamino-(4-chlorophenyl)methyl)-pentamethylene]-3,4-dihydro-1H-2,9-diazafluorene}] | 18
